Read-outs that look alike come from different tables or passages of the source.
Biological target: recombinant human GSK-3β (Homo sapiens, UniProt P49841)
Assay: Determination of inhibition of GSK-3 enzyme activity
Assay type: biochemical
Settings: read-out: GSK-3 enzyme-inhibiting activity (IC50 value)
Method: Determination of Inhibition of GSK-3 Enzyme Activity
To five μl of a test compound in 5% DMSO as a solvent, 25 μl of phospho-glycogen synthase peptide-2 substrate solution [6 μm phospho-glycogen synthase peptide-2, 20 μm ATP, 16 mM MOPS buffer, pH 7.0, 0.2 mM EDTA, 20 mM magnesium acetate, 0.1 μl [γ-^33P]ATP (specific activity: about 110 TBq/mmol)] was added, and 20 μl of a GSK-3β enzyme solution [10 mU recombinant human GSK-3β, 20 mM MOPS buffer, pH 7.0, 1 mM EDTA, 0.1% polyoxyethylenelauryl ether (23 Lauryl Ether; Brij 35), 5% glycerol, 0.1% β-mercaptoethanol] was further added to initiate the reaction. After reacting at room temperature for 20 minutes, an equal amount of 200 mM phosphate solution was added to stop the reaction. 90 μl of the reaction product was allowed to adsorb to the MultiScreen PH plate (Millipore), and washed with 100 mM phosphate solution. After drying said plate, 30 μl of MicroScint-O (Packard Bioscience) was added, and cpm was measured by a scintilation counter to examine the inhibition activity. As used herein, Phospho GS Peptide 2 means […]P)-Glu-Asp-Glu-Glu-Glu (SEQ ID NO: 1).

Sequence of recombinant human GSK-3β (P49841 whole entry): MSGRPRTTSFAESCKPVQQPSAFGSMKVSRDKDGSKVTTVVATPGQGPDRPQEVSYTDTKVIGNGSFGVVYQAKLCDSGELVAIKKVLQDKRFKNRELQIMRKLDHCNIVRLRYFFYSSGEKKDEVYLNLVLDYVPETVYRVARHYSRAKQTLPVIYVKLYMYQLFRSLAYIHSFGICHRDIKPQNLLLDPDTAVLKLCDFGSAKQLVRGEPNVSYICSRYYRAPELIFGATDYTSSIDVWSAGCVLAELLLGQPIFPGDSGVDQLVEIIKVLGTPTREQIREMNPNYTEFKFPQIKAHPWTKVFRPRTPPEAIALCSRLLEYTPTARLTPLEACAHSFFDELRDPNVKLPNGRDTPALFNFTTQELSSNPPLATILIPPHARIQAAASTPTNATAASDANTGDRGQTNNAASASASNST

IC50 (IC50 class given in μM) [µM]	IC50 (phospho-glycogen synthase peptide-2 substrate, [γ-33P]ATP, IC50 class printed in nM) [µM]	SMILES
1 to 10		N#Cc1c2n(c3c(=S)[nH]cnc13)CCN(S(=O)(=O)c1ccccc1)CC2 [Compound No. 410, 8-(phenylsulfonyl)-4-thioxo-3-hydro-6H,7H,9H,10H-1,4-diazaperhydroepino[1′,7′-5,1]pyrrolo[3,2-d]pyrimidine-11-carbonitrile]
1 to 10		N#Cc1c2n(c3c(=S)[nH]cnc13)CCN(Cc1ccccc1)c1ccccc1-2 [Compound No. 1799, 5-benzyl-9-thioxo-10-hydro-6H,7H-benzo[f]pyrimidino[5′,4′-2,3]pyrrolo[1,5-d]1,4-diazepine-13-carbonitrile]

Further lines, the molecule ahead of its results:

SMILES	IC50 (IC50 class given in μM) [µM]	IC50 (phospho-glycogen synthase peptide-2 substrate, [γ-33P]ATP, IC50 class printed in nM) [µM]
Cc1ccc(NC(=O)N2CCc3c(C#N)c4nc[nH]c(=O)c4n3CC2)cc1 [Compound No. 161, (11-cyano-4-oxo(3-hydro-6H,7H,9H,10H-1,4-diazaperhydroepino[4′,5′-1,5]pyrrolo[3,2-d]pyrimidine-8-yl))-N-(4-methylphenyl)carboxamide]	1 to 10	
Cc1ccc(C(=O)N2CCc3c(C#N)c4nc[nH]c(=O)c4n3CC2)cc1 [Compound No. 50, 8-[(4-methylphenyl)carbonyl]4-oxo-3-hydro-6H,7H,9H,10H-1,4-diazaperhydroepino[1′,7′-5,1]pyrrolo[3,2-d]pyrimidine-11-carbonitrile]	1 to 10	
N#Cc1c2n(c3c(=S)[nH]cnc13)CCN(C(=O)Nc1cccc(C(=O)O)c1)CC2 [Compound No. 792, 3-[(11-cyano-4-thioxo-3-hydro-6H,7H,9H,10H-1,4-diazaperhydroepino[4′,5′-1,5]pyrrolo[3,2-d]pyrimidine-8-yl)carbonylamino]benzoic Acid]		< 0.05

Reference: patent publication US20050171094A1, “Pyrrolopyrimidine derivatives” (priority 2002, published 2005)
